Experimental data published in article PMC4259414, “HS-133, a novel fluorescent phosphatidylinositol 3-kinase inhibitor as a potential imaging and anticancer agent for targeted therapy” (Oncotarget, 2014).
pIC50: −log10 of the molar value.

Legend:
HUVECs [1] = test: wound migration assay; type: cell-based, human; conditions: HUVECs, 1, 5, or 10 μM, 18 h
Method: (§1) To examine the effect of HS-133 on angiogenesis, a capillary tube formation assay using human umbilical vein endothelial cells (HUVECs) was performed. […] Cell migration is critical for the endothelial cells to form blood vessels during angiogenesis, and is necessary for tumor growth and metastasis. Thus, we conducted a wound migration assay to study the effect of HS-133 on cell migration. […] Considering that endothelial migration and tube formation have all highly relevant properties of angiogenesis, our results illustrated that HS-133 has the ability to block angiogenesis.
HUVECs plated on 60 mm-diameter culture dishes at 90% confluence, were wounded 2 mm in width with a sterile razor blade and marked at the injury line. […] HUVECs were allowed to migrate for 18 h and were rinsed with a serum-free medium, followed by fixing with absolute methanol and staining with Giemsa (Sigma-Aldrich). Migration was quantitated with counting the number of cells that moved beyond the reference line.

SkBr3 cells [2] = test: apoptosis: Western blotting and TUNEL assay; type: cell-based, human
From the text: Since PI3K and its downstream effectors appear to mediate anti-apoptotic signals, we examined the effect of HS-133 on apoptosis. […] We also observed that the levels of Bax, pro-apoptotic protein, were increased by HS-133 treatment in a dose-dependent manner. Furthermore, induction of apoptosis by HS-133 was confirmed by visualizing the fragmented DNA with TUNEL staining (Fig. 5B).
The cells were washed three times with ice-cold PBS before lysis, and were lysed with a buffer containing 1% Triton X-100, 1% Nonidet P-40 (NP-40), as well as protease and phosphatase inhibitor cocktails (GenDEPOT, Barker, TX). Equal amounts of protein were separated by 10% sodium dodecyl sulfate-polyacrylamide gel electrophoresis (SDS-PAGE) and transferred onto the polyvinylidene fluoride (PVDF) membranes (Millipore, Bedford, MA). Immunostaining was performed by incubating the blots with primary antibodies, followed by horseradish peroxidase (HRP)-conjugated secondary antibody and detected with an enhanced chemiluminescence (ECL) plus system (Amersham Biosciences, Piscataway, NJ). […]
The SkBr3 cells were plated on 18-mm cover glasses in DMEM medium and incubated for 24 h so that approximately 70% confluence was reached. […] The stained cells were examined for a fluorescence of nuclear fragmentation. […]

SkBr3 cells [3] = test: cell cycle analysis by PI staining and flow cytometry; type: cell-based, human; conditions: SkBr3, 1, 10, 50 μM, 24 h
Method: To examine the relationship between the growth inhibitory effect of HS-133 and cell cycle progression, we analyzed cell cycle distribution of SkBr3 cells by HS-133 using a flow cytometry. The SkBr3 cells were treated for 24 h with various concentrations of HS-133 (1, 10, 50 μM) and collected and stained with PI and then analyzed by FACS. […] The up-regulation of p27, cyclin dependent kinase (CDK) inhibitor, is related to G0/G1 cell cycle arrest and contributes to the down-regulation of cyclin D1 [31]. Thus, we evaluated the effect of HS-133 on the protein expressions of p27 and cyclin D1. HS-133 increased the expression of p27 while decreasing cyclin D1 expression (Fig. 4C).
The SkBr3 cells were plated in 100 mm-diameter culture dishes. On the following day, the cells were treated with various concentrations of HS-133 or 0.1% DMSO for 24 h. The floating and adherent cells were collected and fixed in cold 70% ethanol at 4°C overnight. […] The events were evaluated for each sample and the cell cycle distribution was analyzed using Cell Quest software (Becton Dickinson). The results were presented as the number of cells versus the amount of DNA, as indicated by the intensity of a fluorescence signal. […]

HUVECs [4] = test: tube formation assay; type: cell-based, human; conditions: 20 h
Method: as §1
A 10 mg/ml (200 μl) of Matrigel (BD Biosciences) was polymerized for 30 min at 37°C. HUVECs were suspended in M199 (2% FBS) medium containing VEGF (50 ng/ml) at a density of 2.5 × 10^5 cells/ml, and 0.2 ml of cell suspension was added to each well coated with Matrigel, together with or without the indicated concentrations of HS-133 for 20 h. The morphological changes of the cells and tubes formed were observed under a phase-contrast microscope and photographed at 200× and 400× magnification.

SkBr3 cells [5] = test: cell viability MTT assay, SkBr3; type: cell-based; conditions: Homo sapiens, SK-BR-3, 48 h, SkBr3, 48 h, read-out: IC50, cell growth inhibition
Method: To determine whether HS-133 can function as a novel anticancer compound, we tested the ability of this compound to inhibit the growth of breast cancer cell lines (SkBr3, T47D, and MCF-7) using an MTT assay. The cells were exposed to various concentrations (0.5–50 μM) of HS-133 for 48 h. As shown in Fig. 3A-C, HS-133 inhibited the growth of all three breast cancer cell lines in a dose-dependent manner.
Cell viability was performed by an MTT assay. Briefly, the SkBr3, T47D, and MCF-7 cells were plated at a density of 1-5 × 10^3 cells/well in a 96-well plate for 48 h. The medium was removed, and the cells were treated with either DMSO as control or various concentrations of HS-133. The final concentration of DMSO in the medium was ≤ 0.1% (v/v). After the cells were incubated for 48 h, 20 μl of MTT solutions (2 mg/ml) was added to each well for another 4 h at 37°C. The formazan crystals that formed were dissolved in DMSO (200 μl/well) via constant shaking for 5 min. The plate was then read on a microplate reader at 540 nm. Three replicate wells were used for each analysis. The median inhibitory concentration (IC50, defined as the drug concentration at which cell growth was inhibited by 50%) was assessed from the dose-response curves.

What does the source list for `CC(=O)Nc1ccc(-c2nc3c(c(=O)n(C)c(=O)n3C)n2-c2cccc(F)c2)cc1` [HS-133, N-(4-(7-(3-Fluorophenyl)-1,3-dimethyl-2,6-dioxo-2,3,6,7-tetrahydro-1H-purin-8-yl)phenyl) acetamide]?
cell migration (HUVECs [1]): significantly inhibited; induction of apoptosis (cleavage of PARP and caspases, Bax, TUNEL) (SkBr3 cells [2]): could induce apoptosis; cell cycle distribution (SkBr3 cells [3]): increased the number of cells in the G0/G1 phase; capillary tube formation (HUVECs [4]): inhibited the formation of vessel-like structures; pIC50 (SkBr3 cells [5]): 4.33
